Six compounds from US9018438B2, “Screening method for anticancer drugs” (Kyoto University, priority 2010, dated 2015) can be followed below.

For assay [1], the system named is Reck gene promoter. In words: SEAP assay in YM3 cells (Reck gene promoter-reporter system). The format is cell-based, mouse. The note with it: for Activity in Dox: in the presence of Dox (HRAS12V-off); for Induction (fold): relative SEAP activity at optimal conc., YM3 cells, regular medium (Ras-ON). The method, then:
A 4.1-kb upstream region of a mouse Reck gene (Gene ID: 53614, Chromosome 4—NC—000070.5 43884251-43888453) was inserted into a pSEAP2-Basic vector (Clontech) to give a pSEAP-RP4.1 plasmid. […] Biochem Biophys Res Commun 1999; 264: 668-675.). […] TF323-C3 cells can be distributed from one of the inventors Makoto Noda.
YM3 cells were seeded onto 96-well plates at 1×10^4 cells in 100 μl per well and incubation was performed for 5 hours to allow the cells to settle. A compound solution (500 μM, 1 μl) was added to the medium. The employed test compounds were those in the chemical library Prestwick Chemical Library (Prestwick Chemical, Illkirch, France), which is composed of 880 structurally diverse known bioactive compounds, dissolved in nano-pure grade dimethyl sulfoxide (DMSO; Wako). […] A vehicle (DMSO, 1 μl) alone as a negative control and hypothemycin (HPM, 1 mg/ml) as a positive control were added to two wells per plate. Each sample was tested on two different plates (duplicate samples).
After incubation for 48 hours, a portion (10 μl) of the culture supernatant was sampled, incubated at 65° C. (heat treatment) for 30 minutes, and then subjected to the SEAP assay using Great EscAPe™ SEAP Chemiluminescence Detection Kit (Takara Bio). The remaining medium and the cells were subjected to the cell-counting assay using SF reagent. That is, SF reagent (Nacalai) (10 μl per well) was added to the medium, the plates were incubated for 3 hours in a CO2 incubator, and the absorbance at 450 nm (A450) was measured to obtain relative cell numbers. For the SEAP activity data, “SEAP measured value/A450 value” was defined as “SEAP activity per cell”, and the value obtained by dividing “SEAP activity per cell” of each compound by “SEAP activity per cell” of the negative control was defined as “relative SEAP activity”. The mean “relative SEAP activity” of the duplicate samples and the standard error thereof were determined. For the cell number data, the value obtained by dividing the SF measured value of each compound by the SF measured value of the negative control was defined as “relative cell number”, and the mean value of the duplicate samples and the standard error thereof were determined. Samples with a large standard error were tested again. In the experiment, duplicate samples were prepared each in a regular liquid medium and in a liquid medium containing Dox (2 μg/ml), and four mean values (the relative cell number and the relative SEAP activity in the Ras-ON state and the relative cell number and the relative SEAP activity in the Ras-OFF state) were obtained (see FIG. 3).

In assay [2] the test system is pro-MMP-9. The assay is described as follows: Gelatin zymography of RM72 culture supernatant, MMP-9. Format: cell-based, human. As to conditions: RM72 cells; DSF 16 μM, DXR 210 nM, Gra 32 nM, Pyt 5 μM; 48 hours. The method, then: Gelatin zymography with the culture supernatant of RM72 cells treated with DSF, DXR, Gra, Pyt, pDTC, HPM, and DMSO (vehicle) was performed. Specifically, RM72 cells (2×10^4 cells per well) seeded onto 96-well plates were incubated for 24 hours, and the medium was replaced with a medium containing each of the above compounds (DSF: 16 μM, DXR: 210 nM, Gra: 32 nM, Pyt: 5 μM, HPM: 1 μg/ml, pDTC: 20 μM). After incubated for 48 hours, the medium was replaced with 100 μl of DMEM containing 0.1% FBS and incubated for additional 12 hours. The culture supernatant was harvested, cleared of a solid matter by centrifugation, and analyzed by gelatin zymography in accordance with the method described in literature (Takahashi C, Sheng Z, Horan. T P, Kitayama H, Maki M, Hitomi K, Kitaura Y, Takai S, Sasahara R M, Horimoto A, Ikawa Y, Ratzkin B J, Arakawa T, Noda M. Regulation of matrix metalloproteinase-9 and inhibition of tumor invasion by the membrane-anchored glycoprotein RECK. Proc Natl Acad Sci USA 1998; 95: 13221-13226). The band intensities were normalized against the cell number determined by the SF assay.

The test system of assay [3] is endogenous RECK. In words: Endogenous RECK mRNA (RT-PCR) and protein (immunoblotting) expression in RM72 cells. The format is cell-based, human. As to conditions: 48 hours, Lyc 1.3 μM, Hr 11 μM. An excerpt:
Relative band intensities were obtained by normalization against HPRT1 for the mRNA and against GAPDH for the protein and subsequent division by the normalized value for the cells treated with the vehicle.
For orientation: In western blotting, separated proteins are transferred to a membrane and probed.

In assay [4] the test system is RM72 cells. The format is in vivo. The note with it: for Lung metastasis Mean: relative lung metastasis; for Lung metastasis Mean / Tumor Mean: vehicle = 100; for Tumor Mean: relative tumor size; for anticancer activity / cancer metastasis suppressing activity: summary statement. How it is done:
RM72 cells (3×10^6 cells) suspended in 0.1 ml of PBS were subcutaneously injected into the right posterior flank of Balb/c nude mice (6 weeks old, male, Charles River). […]. After 14-day treatment, the mice were anesthetized and their bioluminescence was recorded by the method described below. After the whole-body recording of the bioluminescence, the lung was resected, washed with PBS (−), and subjected to bioluminescence recording. The tumor size (length×width×height) was measured once a week. Statistical significance was assessed by Student's t-test.
Mice under anesthesia were intraperitoneally injected with 75 mg/kg of d-luciferin dissolved in PBS (−). Bioluminescence images were acquired with IVIS ImagingSystem (Xenogen) at 5 minutes after the injection (Wang S, El-Deiry W S. Requirement of p53 targets in chemosensitization of colonic carcinoma to death ligand therapy. Proc Natl Acad Sci USA 2003; 100: 15095-15100; Minn A J, Kang Y, Serganova I, Gupta G P, Giri D D, Doubrovin M, Ponomarev V, Gerald W L, Blasberg R, Massague J. Distinct organ-specific metastatic potential of individual breast cancer cells and primary tumors. J Clin Invest 2005; 115: 44-55). The photons emitted from the whole bodies or the isolated organs were collected for a period of 60 seconds and integrated. The images were analyzed using Living Image software (Xenogen).
The anti-tumorigenic and anti-metastatic activities of Pyt, Hr, Gra and Lyc were investigated with the same protocol as in Example 9. The experiment was conducted in two batches: Experiment 1 for three groups of a Pyt group, a Hr group and a vehicle group and Experiment 2 for three groups of a Gra group, a Lyc group and a vehicle group. The doses of the test compounds were set at two different quantities considered to be appropriate based on literature (see Tables 3 and 4).

Assay [5] has as its system RM72 cells. The assay is described as follows: IC30 concentration in RM72 cells. Format: cell-based, human.
The subject of assay [6] is Reck gene promoter. In words: SEAP assay in YM3 cells (Reck gene promoter-reporter system). The note with it: determined by dose-response assays (0.0617, 0.185, 0.556, 1.67, 5.00 μM) using YM3 cells. The format is cell-based, mouse.

Where a name gives a salt, the structure may show the parent alone. Read-outs that look alike come from different tables or passages of the source.

As for `COc1cccc2c1C(=O)c1c(O)c3c(c(O)c1C2=O)C[C@@](O)(C(=O)CO)C[C@@H]3O[C@H]1C[C@H](N)[C@H](O)[C@H](C)O1` [Doxorubicin hydrochloride], in assay [1], the “Activity in Dox” value was “+ (more than 1.9-fold)” and the “Induction (fold)” value turned out to be 8.55 fold. In assay [2], the “pro-MMP-9 level in the culture supernatant” value is “reduced”.
The IC30 is the concentration at which the effect reaches the 30% level. `COc1ccc2c(c1)[nH]c1c(C)nccc12.Cl` [Harmine hydrochloride]: in assay [1], the “Activity in Dox” value is “± (between 1.9 and 1.5-fold)”; the “Induction (fold)” value amounted to 2.44 fold. In assay [3], the “expression of RECK mRNA” value is on record as “increased the expression” and the “expression of RECK protein” value is listed as “increased the expression”. Also, in assay [4] (both doses), the anti-metastatic activity result is “strong” and the anti-tumorigenic activity result is on record as “strong”. Moreover, in assay [4] (3 mg/kg/day), the “Lung metastasis Mean” value came to 22.0 and the “Tumor Mean” value is 56.4. For the same compound, in assay [4] (10 mg/kg/day), the “Lung metastasis Mean” value stood at 25.7 and the “Tumor Mean” value was 47.2. In assay [4], the anticancer activity result is recorded as “confirmed” and the “cancer metastasis suppressing activity” value is “confirmed”. This compound also gave an IC30 in assay [5] of 11 µM.
With `Cl.O[C@H]1[C@H]2c3cc4c(cc3CN3CCC(=C[C@@H]1O)[C@H]23)OCO4` [Lycorine hydrochloride], in assay [1], the “Activity in Dox” value is reported as “+ (more than 1.9-fold)” and the “Induction (fold)” value stood at 3.44 fold. In addition, in assay [3], the “expression of RECK mRNA” value was “increased the expression” and the “expression of RECK protein” value is “reduced the expression”. In assay [6], this compound returned an Optimal conc. of 5.00 µM. Besides, the anti-tumorigenic activity result in assay [4] (both doses) is recorded as “strong”. In assay [4] (high dose), the anti-metastatic activity entry was “strong”. In addition, the anti-metastatic activity entry in assay [4] (low dose) was “weak”. In addition, in assay [4] (2.5 mg/kg/day), the “Lung metastasis Mean” value came to 65.5 and the “Tumor Mean” value came out at 69.7. In assay [4] (7.5 mg/kg/day), the “Lung metastasis Mean” value was 17.7 and the “Tumor Mean” value turned out to be 70.9. In assay [4], the anticancer activity result is on record as “confirmed” and the “cancer metastasis suppressing activity” value was “confirmed”. For the same compound, the IC30 in assay [5] stood at 1.3 µM.
For Gramicidin, in assay [1], the Optimal conc. was 5.00 µM, the “Activity in Dox” value was “+ (more than 1.9-fold)” and the “Induction (fold)” value is recorded as 7.30 fold. Further, the “pro-MMP-9 level in the culture supernatant” value in assay [2] is given as “reduced”. In assay [4] (both doses), the anti-metastatic activity entry is “strong” and the anti-tumorigenic activity result is “weak”. In assay [4] (0.03 mg/kg/day), the “Lung metastasis Mean” value is recorded as 42.0 and the “Tumor Mean” value is listed as 89.3. For the same compound, in assay [4] (0.1 mg/kg/day), the “Lung metastasis Mean” value is 27.4 and the “Tumor Mean” value was determined as 83.1. Besides, in assay [4], the anticancer activity entry is reported as “confirmed” and the “cancer metastasis suppressing activity” value is given as “confirmed”.
Take Meclocycline sulfosalicylate: in assay [1], the “Activity in Dox” value is given as “− (less than 1.5-fold)” and the “Induction (fold)” value was determined as 2.59 fold. The Optimal conc. in assay [6] worked out at 0.0617 µM.
The corresponding values for Trimeprazine tartrate are “− (less than 1.5-fold)”, 2.30 fold and 5.00 µM.
